Experimental data published in patent US20260078099A1, “COMPOUND, PREPARATION METHOD THEREOF, AND LIPID NANOPARTICLE AND PHARMACEUTICAL COMPOSITION” (priority 2023, published 2026).

Key:
[1] = tested on: mice; test: Bioluminescent study, intramuscular injection of F-luc mRNA LNPs; assay type: in vivo; settings: F-luc luminescence flux normalized to MC3; 0.25 mg/kg intramuscular, mice n=3, 6-hour time point
Protocol: The efficacy of nanoparticle compositions was evaluated using bioluminescent studies. A dose of 0.25 mg/kg (mpk) of the formulation was administered to mice (n=3) via intramuscular injection, and bioluminescence was measured at a 6-hour time point. The test lipid nanoparticles from the MC3 formulation were evaluated, and in some cases, controls (e.g., PBS controls) were assessed for comparison.
The characteristics of the test lipid nanoparticles measured from the test groups, including F-luc luminescence intensity, are listed in the table below.

[2] = LNP size and PDI by dynamic light scattering; assay type: physicochemical; settings: mRNA LNP, cationic lipid/DSPC/cholesterol/PEG-lipid 50:10:38.5:1.5
Protocol: (§1) In summary, the cationic lipid described herein, DSPC, cholesterol, and PEG-lipid were dissolved in ethanol at a molar ratio of 50:10:38.5:1.5 and diluted in 10 mM to 50 mM citrate buffer at pH 4 with mRNA. Using a microfluidic device, the lipid ethanol solution was mixed with mRNA aqueous solution at a volume ratio of 1:3 and a total flow rate ranging from 6-30 mL/min, preparing LNPs with a total lipid to mRNA weight ratio of approximately 10:1 to 30:1. Ethanol was removed by dialysis and replaced with PBS. Finally, the lipid nanoparticles were filtered through a 0.22 μm sterile filter.
(§2) The size of lipid nanoparticles was measured by dynamic light scattering using a Malvern Zetasizer Nano ZS (Malvern, UK) with a 90° scattering detection mode. The encapsulation efficiency of lipid nanoparticles was determined using the Quant-it Ribogreen RNA Quantitation Kit (Thermo Fisher Scientific, UK) according to the manufacturer's instructions. The apparent pKa of LNP formulations correlates with the delivery efficiency of nucleic acids by LNPs in vivo. The apparent pKa ranges from approximately 5 to 7. An analysis based on fluorescence from 2-(p-tolylamino)-6-naphthalenesulfonic acid (TNS) was used to determine the apparent pKa of formulations. As described above, LNP formulations containing cationic lipid/DSPC/cholesterol/DMG-PEG (50/10/38.5/1.5 mol %) in PBS were prepared. A 300 μM stock solution of TNS in distilled water was prepared. LNP formulations were diluted to 0.1 mg/mL total lipid in 3 mL of buffer solution containing 50 mM sodium citrate, 50 mM sodium phosphate, 50 mM sodium borate, and 30 mM sodium chloride (pH ranged from 3 to 9). […] S-shaped curve best-fit analysis was applied to the fluorescence data, and the pKa value was measured as the pH value producing half-maximal fluorescence intensity.

[3] = LNP encapsulation efficiency (Quant-it Ribogreen); assay type: physicochemical; settings: mRNA LNP, cationic lipid/DSPC/cholesterol/PEG-lipid 50:10:38.5:1.5
Text: Encapsulation Efficiency: The encapsulation efficiency of a therapeutic and/or prophylactic agent refers to the amount of the therapeutic and/or prophylactic agent encapsulated within or otherwise associated with the nanoparticle composition relative to the initial amount provided during preparation. Encapsulation efficiency is desirably high (such as close to 100%). Encapsulation efficiency can be measured, for example, by comparing the amount of therapeutic and/or prophylactic agent in a solution containing the nanoparticle composition before and after disruption of the nanoparticle composition using one or more organic solvents or detergents. Fluorescence can be used to measure the amount of free therapeutic and/or prophylactic agent (e.g., RNA) in solution. For the nanoparticle compositions described herein, the encapsulation efficiency of the therapeutic and/or prophylactic agent may be at least 50%, such as 50%, 55%, 60%, 65%, 70%, 75%, 80%, 85%, 90%, 91%, 92%, 93%, 94%, 95%, 96%, 97%, 98%, 99%, or 100%. In some embodiments, the encapsulation efficiency may be at least 80%. In certain embodiments, the encapsulation efficiency may be at least 90%.
as §1, §2

[4] = LNP zeta potential; assay type: physicochemical; settings: mRNA LNP
Text: Nanoparticle compositions can be characterized by various methods. For example, the morphology and size distribution of nanoparticle compositions can be examined using microscopy (e.g., transmission electron microscopy or scanning electron microscopy). The zeta potential can be measured using dynamic light scattering or potentiometric titration. Dynamic light scattering can also be used to determine particle size. Instruments such as the Zetasizer Nano ZS (Malvern Instruments Ltd., Malvern, Worcestershire, UK) can also be used to measure multiple characteristics of nanoparticle compositions, such as particle size, polydispersity index, and zeta potential.
[…]: The zeta potential of the nanoparticle composition can indicate the electrophoretic potential of the composition. For example, zeta potential may describe the surface charge of the nanoparticle composition. Nanoparticle compositions with relatively low positive or negative charges are generally desirable, as materials with higher charges may interact undesirably with cells, tissues, and other components in the body. In some embodiments, the zeta potential of the nanoparticle composition may be about −10 mV to about +20 mV, about −10 mV to about +15 mV, about −10 mV to about +10 mV, about −10 mV to about +5 mV, about −10 mV to about 0 mV, about −10 mV to about −5 mV, about −5 mV to about +20 mV, about −5 mV to about +15 mV, about −5 mV to about +10 mV, about −5 mV to about +5 mV, about −5 mV to about 0 mV, about 0 mV to about +20 mV, about 0 mV to about +15 mV, about 0 mV to about +10 mV, about 0 mV to about +5 mV, about +5 mV to about +20 mV, about +5 mV to about +15 mV, or about +5 mV to about +10 mV.

| Structure (SMILES) | Relative Total flux [1] | PDI [2] | Size (nm) [2] [nm] | Encapsulation efficiency (%) [3] [%] | Zeta potential (mV) [4] [mV] |
| --- | --- | --- | --- | --- | --- |
| CCCCCCCCNC(=O)C(CCCCCCCC)N(CCCN(C)CCO)C(=O)CCCCCCC(=O)OC(CCCCCCCC)CCCCCCCC (centres unmarked) [Compound B30] | A (A: ≥2) | 0.08 | 64.27 | 93.97 | 3.81 |
| CCCCCCCCNC(=O)C(CCCCCCC)N(CCCN(C)C)C(=O)CCCCCCC(=O)OC(CCCCCCCC)CCCCCCCC (centres unmarked) [Compound A30] | B (B: ≥1 and <2) | 0.12 | 86.87 | 96.65 | 0.47 |
| CCCCCCC(CCCCCC)OC(=O)CCCCCCCCCNC(=O)C(CCCCCCCCCC(=O)OC(CCCCCC)CCCCCC)N(CCCN1CCCC1)C(=O)CCCN1CCCC1 (centres unmarked) [Compound E8] | B (B: ≥1 and <2) | 0.182 | 92.75 | 96.30 | −18.58 |
| CCCCCCCC(C(=O)NCCCCCCCCCC(=O)OC(CCCCCC)CCCCCC)N(CCCN(CCO)CCO)C(=O)CCCCCCCCCC(=O)OC(CCCCCC)CCCCCC (centres unmarked) [Compound B2] | A (A: ≥2) | 0.15 | 104.5 | 85.90 | −6.41 |
| CCCCCCCCNC(=O)C(CCCCCCCC)N(CCCN(CCO)CCO)C(=O)CCCCCCC(=O)OC(CCCCCCCC)CCCCCCCC (centres unmarked) [Compound B26] | D (D: <0.1.) | 0.22 | 105.63 | 92.99 | −1.65 |
| CCCCCCCCNC(=O)C(CCCCC)N(CCCN(C)C)C(=O)CCCCCCC(=O)OC(CCCCCCCC)CCCCCCCC (centres unmarked) [Compound A28] | A (A: ≥2) | 0.15 | 88.05 | 85.93 | −0.41 |
| CCCCC/C=C\C/C=C\CCCCCCCC(=O)N(CCCN1CCCC1)CC(=O)NCCCCCCCCCCCCCC [Compound A21] | C (C: ≥0.1 and <1) | 0.071 | 95.73 | 54.53 | 11.03 |
| CCCCCCCCC(C(=O)NCCCCCCCCCC(=O)OCC12CC3CC(CC(C3)C1)C2)N(CCCN(C)C)C(=O)CCCCCCCCCC(=O)OC(CCCCCC)CCCCCC (centres unmarked) [Compound A18] | D (D: <0.1.) | 0.136 | 78.14 | 87.17 | −15.20 |
| CCCCCCCC(C(=O)NCCCCCCCCCC(=O)OC(CCCCCC)CCCCCC)N(CCCN(C)C)C(=O)CCCCCCCCCC(=O)OCC1CC=CCC1 (centres unmarked) [Compound A19] | D (D: <0.1.) | 0.093 | 78.64 | 89.13 | −0.20 |
| CCCCCCCC(C(=O)NCCCCCCCCCC(=O)OC(CCCCCC)CCCCCC)N(CCCN1CCCC1)C(=O)CCCCCCCCCC(=O)OCC1CC=CCC1 (centres unmarked) [Compound A9] | D (D: <0.1.) | 0.191 | 64.58 | 93.54 | −18.67 |
| CCCCCCCC(C(=O)NCCCCCCCCCC(=O)OC(CCCCCC)CCCCCC)N(CCCN1CCCC1)C(=O)CCCCCCCCCC(=O)OC(CCCCCC)CCCCCC (centres unmarked) [Compound A2] | C (C: ≥0.1 and <1) | 0.153 | 78.3 | 50.77 | −2.69 |
| CCCCCCC(CCCCCC)OC(=O)CCCCCCCCCNC(=O)C(CCCCCCCCCC(=O)OC(CCCCCC)CCCCCC)N(CCCN(CC)CC)C(=O)CCCN(CC)CC (centres unmarked) [Compound E7] | C (C: ≥0.1 and <1) | 0.13 | 95.52 | 92.11 | −16.13 |
| CCCCCCCCC(C(=O)NCCCCCCCCCC(=O)OCCCCCC)N(CCCN(C)C)C(=O)CCCCCCCCCC(=O)OC(CCCCCC)CCCCCC (centres unmarked) [Compound A15] | A (A: ≥2) | 0.251 | 113.2 | 93.95 | 4.75 |
| CCCCCCCC(C(=O)NCCCCCCCCCC(=O)OC(CCCCCC)CCCCCC)N(CCOC(=O)CCN(C)C)C(=O)CCCCCCCCCC(=O)OC(CCCCCC)CCCCCC (centres unmarked) [Compound B24] | A (A: ≥2) | 0.245 | 68.83 | 93.57 | −9.96 |
| CCCCCCCCC(CCCCCC)COC(=O)CCCCCNC(=O)C(CCCCC)N(CCCN1CCCC1)C(=O)CCCCCC(=O)OCC(CCCCCC)CCCCCCCC (centres unmarked) [Compound A45] | A (A: ≥2) | 0.06 | 79.00 | 94.62 | 0.83 |
| CCCCCCCCC(CCCCCC)COC(=O)CCCCCCCCCNC(=O)C(CCCCCCCC)N(CCCN1CCCC1)C(=O)CCCCCCCCCC(=O)OCC(CCCCCC)CCCCCCCC (centres unmarked) [Compound A4] | D (D: <0.1.) | 0.202 | 72.85 | 97.34 | 5.65 |
